These results are taken from patent publication US6893846B2, “Primers for use in detecting beta-lactamases” (priority 1998, dated 2005).

Data set [1] concerns E. aerogenes. The data set can be described thus: Vitek automated susceptibility system. To be noted: the 31 selected E. aerogenes strains. It counts as cell-based, Enterobacter aerogenes. The source says: Among all E. aerogenes recovered from clinical specimens during an eighteen month period (September 1993 to March 1995), thirty-one E. aerogenes strains showing a resistance phenotype different from that observed with derepressed mutants normally encountered at the Hunter Holmes McGuire Medical Center, Richmond, Va. were selected for this study. The strains selected were intermediate to ceftriaxone but resistant to ceftazidime when tested with the Vitek automated susceptibility system (bioMerieux Vitek, St. Louis, Mo.). Derepressed mutants previously isolated from this center were usually resistant to both ceftriaxone and ceftazidime.

Data set [2] relates to K. pneumoniae 225. As to the kind of experiment: NCCLS microdilution susceptibility test. The class given is cell-based, Klebsiella pneumoniae. To be noted: Klebsiella pneumoniae, 225. Background: Broth dilution looks for growth in wells or tubes with falling amounts of substance.
Data set [3] deals with K. pneumoniae 225. The data set can be described thus: NCCLS disk diffusion assay. It counts as cell-based, Klebsiella pneumoniae. To be noted: disk diffusion, Kleb 225. Background: In agar diffusion tests the substance spreads into inoculated agar from a disc or well.
Data set [4] has as its system K. pneumoniae 225. As to the kind of experiment: Three-dimensional test (enzymatic inactivation of antibiotics). To be noted: beta-lactamase-mediated hydrolysis by K. pneumoniae 225, lawn E. coli ATCC 25922.
The subject of data set [5] is E. aerogenes. As to the kind of experiment: Double-disk potentiation test. The class given is cell-based, Enterobacter aerogenes. To be noted: all the E. aerogenes strains selected; potentiation by clavulanic acid. An excerpt:
This test described by Jarlier et al., Rev. Infect. Dis.

Data set [6] deals with K. pneumoniae 225. To be noted: test drug disk around amoxicillin-clavulanate disk.
Data set [7] relates to E. coli C600 transconjugant. To be noted: disk diffusion, Tc = transconjugate E. coli C600.
Data set [8] concerns E. coli HB101 transformant (17 kb plasmid). To be noted: disk diffusion, Tr (17 kb) = transformant E. coli HB101.
Data set [9] has as its system SHV and TEM genes. As to the kind of experiment: PCR amplification with TEM and SHV primers. Further details: species or system Klebsiella pneumoniae. The protocol: (§1) The organisms were inoculated into 5 ml of Luria Bertani (LB) broth (Difco, Detroit, Mich.) and incubated for 20 hours at 37° C. with shaking. Cells from 1.5 ml of overnight culture were harvested by centrifugation at 17,310×g in an Hermle centrifuge for 5 minutes. After the supernatant was decanted, the pellet was resuspended in 500 μl of distilled water. The cells were lysed by heating at 95° C. for 10 minutes and cellular debris was removed by centrifugation for 5 minutes at 17,310×g. The supernatant was used as source of template for amplification.
(§2) The following oligonucleotide primers specific for the SHV and TEM genes were designed by using MacVector version 4.5 (Kodak/IBI): SHV genes: A [5′-([…])-3′] (SEQ ID NO:10) and B [5′-([…])-3′] (SEQ ID NO:11) corresponding to nucleotide numbers 103 to 121 and 988 to 970, respectively, of Mercier et al., Antibicrob. Agents Chemother. 34:1577-1583 (1990)); TEM genes: C [5′-([…])-3′ (SEQ ID NO:5) and D [5′-([…])-3′ (SEQ ID NO:1) corresponding to nucleotide numbers 90 to 105 and 1062 to 1042, respectively, of Sutcliff et al., Proc. Nat. Aca. Sci. USA, 75:3737-3741 (1978). Primers A and B amplified a 885 base pair fragment while primers C and D amplified a 971 base pair fragment. The specificity of the SHV and TEM primers for amplification of SHV and TEM genes respectively was tested by using the following beta-lactamase controls; TEM-I (pACYC177), MIR-1 (from K. pneumoniae96D) and SHV-7 (pCLL3410).
PCR amplifications were carried out on a DNA Thermal Cycler 480 instrument (Perkin-Elmer, Cetus, Norwalk, Conn.) using the Gene Amp DNA amplification kit containing AmpliTaq polymerase (Perkin Elmer, Roche Molecular Systems, Inc., Branchburg, N.J.). The composition of the reaction mixture was as follows: 10 mM Tris-HCl (pH 8.3), 50 mM KCl, 0.1% TRITON X-100, 1.5 mM MgCl2, 0.2 mM (each) of the four deoxynucleoside triphosphates, and 1.2 U of AmpliTaq in a total volume of 49 μl. A total of 1 μl of sample lysate was added to the reaction mixture, and was centrifuged briefly before […] of mineral oil was layered on the surface. The PCR program consisted of an initial denaturation step at 96° C. for 15 seconds; followed by 24 cycles of DNA denaturation at 96° C. for 15 seconds, primer annealing at 50° C. for 15 seconds and primer extension at 72° C. for 2 minutes. After the last cycle the products were stored at 4° C. The PCR products (1/10 volume) were analyzed by electrophoresis using 1.4% agarose gels in TAE buffer (0.04 M Tris-acetate, 0.002 M EDTA [pH 8.5]). The gels were stained with ethidium bromide and the PCR products were visualized with ultra-violet light. […] The larger product which corresponded to the expected size of the SHV specific product was gel purified using a 1.4% agarose in TAE gel and the purified PCR product was used for sequence analysis.

Data set [10] deals with SHV and TEM genes. As to the kind of experiment: PCR amplification with TEM and SHV primers. To be noted: P. mirabilis Pit 85 (pI 5.6, TEM-26-type). Further details: species or system Proteus mirabilis. The protocol:
as §1
The following oligonucleotide primers specific for the SHV and TEM genes were designed by using MacVector version 4.5 (Kodak/IBI): SHV genes: A [5′-([…])-3′] (SEQ ID NO:10) and B [5′-([…])-3′] (SEQ ID NO:11) corresponding to nucleotide numbers 103 to 121 and 988 to 970, respectively, of Mercier et al., Antibicrob. Agents Chemother. […]
PCR amplifications were carried out on a DNA Thermal Cycler 480 instrument (Perkin-Elmer, Cetus, Norwalk, Conn.) using the Gene Amp DNA amplification kit containing AmpliTaq polymerase (Perkin Elmer, Roche Molecular Systems, Inc., Branchburg, N.J.). […] The PCR products (1/10 volume) were analyzed by electrophoresis using 1.4% agarose gels in TAE buffer (0.04 M Tris-acetate, 0.002 M EDTA [pH 8.5]). […]

Data set [11] has as its system SHV and TEM genes. The data set can be described thus: PCR amplification with TEM and SHV primers. Further details: species or system Escherichia coli. Here is the method:
as §1, §2
PCR amplifications were carried out on a DNA Thermal Cycler 480 instrument (Perkin-Elmer, Cetus, Norwalk, Conn.) using the Gene Amp DNA amplification kit containing AmpliTaq polymerase (Perkin Elmer, Roche Molecular Systems, Inc., Branchburg, N.J.). The composition of the reaction mixture was as follows: 10 mM Tris-HCl (pH 8.3), 50 mM KCl, 0.1% TRITON X-100, 1.5 mM MgCl2, 0.2 mM (each) of the four deoxynucleoside triphosphates, and 1.2 U of AmpliTaq in a total volume of 49 μl. A total of 1 μl of sample lysate was added to the reaction mixture, and was centrifuged briefly before […] of mineral oil was layered on the surface. The PCR program consisted of an initial denaturation step at 96° C. for 15 seconds; followed by 24 cycles of DNA denaturation at 96° C. for 15 seconds, primer annealing at 50° C. for 15 seconds and primer extension at 72° C. for 2 minutes. After the last cycle the products were stored at 4° C. The PCR products (1/10 volume) were analyzed by electrophoresis using 1.4% agarose gels in TAE buffer (0.04 M Tris-acetate, 0.002 M EDTA [pH 8.5]). The gels were stained with ethidium bromide and the PCR products were visualized with ultra-violet light. […]

The test system of data set [12] is K. pneumoniae and A. hydrophila wound infection. To be noted: one patient, intravenous, after four weeks of therapy.
[13] abbreviates: K. pneumoniae Pit 16 (pI 5.6, TEM-26-type).
Where [14] appears, read: K. pneumoniae Pit 82 (pI 8.2, SHV-5).
The mark [15] stands for this setting: K. pneumoniae Pit 100 (pI 7.6, SHV-2).
[16] abbreviates: E. coli Pit 64 (pI 5.6, TEM-26-type).

Values after ≈ are worked out from the molar mass of the structure shown.

As a reminder, the MIC is the least concentration at which growth counts as inhibited. A low value points to a more susceptible organism. Take `CO/N=C(\C(=O)N[C@@H]1C(=O)N2C(C(=O)O)=C(CSc3nc(=O)c(=O)[nH]n3C)CS[C@H]12)c1csc(N)n1` [ceftriaxone]: the Vitek susceptibility result in the data set with E. aerogenes [1] is recorded as “intermediate”. The same compound registered an MIC against K. pneumoniae 225 [2] of 16 µg/mL (≈ 28.9 µM). For the same compound, the “Zone Size” value is recorded as 13 mm with K. pneumoniae 225 [3], 12 mm in [7] and 32 mm in data set [8]. The three dimensional test entry in the data set with K. pneumoniae 225 [4] is given as “positive”. Further, the double disk test result with E. aerogenes [5] is given as “positive”. In addition, the “clavulanate double-disk potentiation test” value in the data set with K. pneumoniae 225 [6] was “positive”.

For “SHV primers: primer pair A (SEQ ID NO:10) and B (SEQ ID NO:11) specific for the SHV genes (DNA 1 CACTCAAGGATGTATTGTG; DNA 2 TTAGCGTTGCCAGTGCTCG; listed as DNA, chemistry not given here)”, the Amplification with primers entry with SHV and TEM genes [9] (setting [13]) was “No”; with SHV and TEM genes [9] (setting [14]), “Yes”; with SHV and TEM genes [9] (setting [15]) it was “Yes”; in the data set with SHV and TEM genes [10], “No”; in the data set on SHV and TEM genes [11] (E. coli Pit 56 (pI 7.6, SHV-2)), “Yes”; with SHV and TEM genes [11] (setting [16]), “No”.

Take “TEM primers: primer pair C (SEQ ID NO:5) and D (SEQ ID NO:1) specific for the TEM genes (DNA 1 TCGGGGAAATGTGCG; DNA 2 TGCTTAATCAGTGAGGCACC; listed as DNA, chemistry not given here)”: the Amplification with primers result is given as “Yes” in the data set on SHV and TEM genes [9] (setting [13]); “No” with SHV and TEM genes [9] (setting [14]); “No” in the data set with SHV and TEM genes [9] (setting [15]); “Yes” in the data set with SHV and TEM genes [10]; “No” in the data set on SHV and TEM genes [11] (E. coli Pit 56 (pI 7.6, SHV-2)); “Yes” with SHV and TEM genes [11] (setting [16]).

As for imipenem/cilastatin, the “clinical outcome of therapy” value in [12] is listed as “all signs of inflammation resolved”.
